Results reported in patent US6841661B2, “Glycopeptide antibacterial compounds, compositions containing same and methods of using same” (Princeton Univerisity, priority 1999, dated 2005).
In brackets after ≈: the same amount, converted by molar mass. Several values for one entry are separate records, joined by “and”; a condition that tells them apart may be missing. Equal entries are not always repeated. Where two headings read alike, the source gives them in different places.

Legend:
[1] = system: E. faecium CL 5053 (VanA); assay: microbe, parasite or virus in culture; format: cell-based; set-up: CL5053 (in vitro testing): unit not given here; settings: for CL5053 (in vitro testing): Tables 7 and 8, unit not given
Summary of the method: (§1)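 Twofold broth microdilution per modified NCCLS M7-A4, 35 °C. Enterococci and VISA/MRSA in BHI (VISA/MRSA precultured in TSB + 10% HS), E. coli in MH II. Inocula ~1-5×10^6 CFU/ml for enterococci, ~3-7×10^5 CFU/ml otherwise. MIC is the lowest concentration with no visible growth, read at 18-20 hr (E. coli) or 22-24 hr.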

[2] = system: S. aureus MB 2985; assay: MIC by microdilution in Mueller-Hinton broth (in vivo study); format: cell-based; settings: inoculum 1.4 × 10^5 cfu/mL in cation adjusted MHB
Procedure: The MIC is determined by microdilution in Mueller-Hinton broth (MHB) according to the National Committee for Clinical Laboratory Standards guidelines after incubation for 24 hours. Enterococci are tested in cation-supplemented Mueller-Hinton broth at 1.4×10^5 cfu/ml. MIC is defined as the lowest concentration of antibiotic, which inhibits visible growth.

[3] = system: MRSA MH 76; assay: In vitro MIC panel assay (NCCLS broth microdilution); format: cell-based, Staphylococcus aureus; settings: MRSA MH 76; MH II broth
From the text: (§2) National Committee for Clinical Laboratory Standards (NCCLS) guidelines [Methods for Dilution Antimicrobial Susceptibility Tests for Bacteria that Grow Aerobically-Fourth Edition; Approved Standard (NCCLS Document M7-A4, January 1997)] are used to establish the assay, although variations are made to optimize the published method according to the specific needs of the present investigation.
(§3) The test panel currently includes eight enterococci and 13 staphylococci, which are selected based upon their antibiotic susceptibility profiles. The methicillin-sensitive Staphylococcus aureus (MSSA) strain MB2985 (Smith isolate) is used to assesses the potential for serum protein binding of the compounds. The paired Gram-negative strains ASP #49 (envA-) and ASP #50 (envA+) (M. Salvatore/N. Lee) are included to judge membrane effects. Table 3 presents a detailed description of the strains included in the panel, including some of the sources of the strains of bacteria.
The glycopeptide antibiotic teicoplanin is included whenever possible. […]
The number of CFU/mL is determined on BHI agar plates, although this is not done routinely because titers of overnight cultures are relatively constant. […]

[4] = Pharmacokinetic studies; format: in vivo; settings: compared with compound 2; stated as and/or
[5] = system: E. coli ASP #49 (envA-); assay: In vitro MIC panel assay (NCCLS broth microdilution); format: cell-based; settings: E. coli ASP #49 (envA−); MH II broth
From the text: as §2, §3
(§4) The glycopeptide antibiotic teicoplanin is included whenever possible.
(§5) TSB, containing 10% HS* for vancomycin intermediate S. aurcus/methicillin-resistant S. aureus (VISA/MRSA) strains, is inoculated from an appropriate source (frozen broth or agar slant) and grown approximately 17 hr at 35° C. with shaking at 220 rpm. Cultures are grown in tubes with a volume of 5 ml for enterococci and 2 ml for all other strains.
(§6) Four milliliter (4 ml) overnight culture is added to 36 ml physiological saline to obtain tenfold dilutions (enterococci). Overnight culture (0.4 ml) is added to 39.6 ml saline to obtain 100-fold dilutions (all strains except enterococci). Diluted cultures are maintained on ice until time of inoculation of test plates.
(§7) The number of CFU/mL is determined on BHI agar plates, although this is not done routinely because titers of overnight cultures are relatively constant. The test media include: • BHI for enterococci and VISA/MRSA; • MH II (i.e., cation-adjusted Mueller-Hinton broth) for MRS, MSS and E. coli.; • MH II+HSA for MSSA is prepared as follows: • a. 2×MHII+86mg/ml HSA • b. Dissolve 4.3 g HSA in 50 ml autoclaved 2x MH II. • c. pH to 7.0 by adding 2M MOPS, sodium. • d. Filter sterilize using 0.22 μm Coming cellulose acetate filter, used because of reported low protein binding. • e. 1×MH II+43 mg/ml HSA • f. Dilute the 2×medium twofold and filter as above. 5.8.6. Preparation of Test Plates
(§8) Using a Denley liquid handling system (or similar automatic device), 100 μ1×medium is added to each well in columns 2-12 of a 96-well microtiter dish. Using a multichannel pipettor, 100 μl 2×medium is added to each well in column 1. Plates may be filled on the day prior to assay, wrapped in plastic bags and refrigerated.
(§9) Vancomycin, Schering 29482, and teicoplanin are prepared on a weight per volume basis using 10 mM 3-(N-morpholino)propane-sulfonic acid (MOPS) buffer pH 7. Test compounds are received in solution in appropriate solvent (typically as 1 mg/ml in DMSO) or are dissolved in appropriate solvent prior to further dilution in 10 mM MOPS buffer, ph7. Consistent with NCCLS guidelines, antibiotics are handled aseptically but are not otherwise sterilized.
(§10) 100 μl appropriately diluted antibiotic solution is added to the first well of the designated row of the 96-well microtiter dish and serially diluted by twofold across the row using the Denley liquid handling system. With the aid of a Dynatech NEC 2000 inoculator, each well of the microtiter dish is inoculated with 1.5 μl diluted overnight culture, yielding approximately 1-5×10^6 CFU/ml for enterococci and approximately 3-7×10^5 CFU/ml for all other strains. Dishes are placed in stacks of no more than five, wrapped in plastic bags and incubated at 35° C. • Indication of result(s) type (% INH, IC50, Zone size, etc.) • MIC=minimum inhibitory concentration ps 5.8.9. Interpretation of the Results on the Basis of Activity […]

[6] = system: MRCNS CL 3069 (S. epi.); assay: as above; format: cell-based; settings: MRCNS CL 3069 (S. epi.); MH II broth
From the text: as §2, §3, §4, §5, §6, §7, §8, §9, §10

[7] = system: MRCNS CL 202 (S. haem.); assay: as above; format: cell-based; settings: MRCNS CL 202 (S. haem.); MH II broth
From the text: as §2, §3, §4, §5, §6, §7, §8, §9, §10

[8] = system: E. coli ASP #50 (envA+); assay: as above; format: cell-based; settings: E. coli ASP #50 (envA+); MH II broth
From the text: as §2, §3, §4, §5, §6, §7, §8, §9, §10

[9] = system: Staphylococcus aureus strain MB2985; assay: In vivo mouse methicillin-sensitive Staphylococcus aureus septicemia protection; set-up: species or system ICR female mice
Procedure: Selected compounds of the invention are tested in an in vivo mouse model. Single dose subcutaneous antibiotic protection from septicemic infections is measured as described by Gill, C. J., J. J. Jackson, L. Gerckens, B. Pelak, R. Thompson, J. Sundelof, H. Kropp and H. Rosen. Antimicrob. Agents Chemother. 42:1996-2001 (1998). Survival is monitored for seven days. ED50's and LD50's are determined by the method of Knudsen and Curtis. J. Am. Stat. Assoc. 42:282-296 (1947). Septicemia is induced in 20 gram ICR (derived from CD-I) female mice by intraperitoneal infection with Staphylococcus aureus strain MB2985. Infection is given i.p. in Brain Heart Broth (BHB) at an infectious inoculum of 1.8×10^7 cfu/mouse. Drug is administered subcutaneously immediately after the infection is initiated.

[10] = system: E. faecalis CL 4877 (VanB); assay: microbe, parasite or virus in culture; format: cell-based; set-up: CL4877 (in vitro testing): unit not given here; settings: for CL4877 (in vitro testing): Tables 7 and 8, unit not given; for MIC, CL4877: E. faecalis CL 4877 (VanB)
Summary of the method: (§11)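 NCCLS M7-A4-based broth microdilution with twofold serial dilutions, incubated at 35° C; medium BHI for enterococci and VISA/MRSA, cation-adjusted Mueller-Hinton for E. coli. Inoculum about 1-5×10^6 CFU/ml (enterococci) or 3-7×10^5 CFU/ml (others); MIC is lowest concentration with no visible growth, read at 18-20 hr for E. coli, 22-24 hr otherwise.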

[11] = system: CL 4931, CL 5053, CL 5242 and CL 4877; format: cell-based, E. faecium, E. faecalis; set-up: unit not given here
Summary of the method: as §11

[12] = system: E. faecium CL 5242 (VanA); assay: microbe, parasite or virus in culture; format: cell-based; set-up: CL5242 (in vitro testing): unit not given here; settings: for CL5242 (in vitro testing): Tables 7 and 8, unit not given; for MIC, CL5242: E. faecium CL 5242 (VanA)
Summary of the method: as §1

[13] = system: E. faecium CL 4931 (VanA); assay: microbe, parasite or virus in culture; format: cell-based; set-up: CL4931 (in vitro testing): unit not given here; settings: for CL4931 (in vitro testing): Tables 7 and 8, unit not given; for MIC, CL4931: E. faecium CL 4931 (VanA)
Summary of the method: as §1

[14] = mouse septicemia, S. aureus 2985 i.p. 1.8 × 10^7 cfu/mouse, single s.c. dose at 0 hr, survival seven days
[15] = mean of CL4931, CL5053, CL5242, CL4877, unit not given
[16] = Table 9, E. faecium CL 5053 (VanA)
[17] = Table 9, mean MIC over CL4931, CL5053, CL5242, CL4877

| Compound | CL5053 (in vitro testing) [1] | CL4877 (in vitro testing) [10] | Mean [11, 15] | CL5242 (in vitro testing) [12] | CL4931 (in vitro testing) [13] | MIC, CL5053 [1, 16] [µg/mL] | MIC, CL4877 ([10]; Table 9) [µg/mL] | Mean [11, 17] | MIC, CL5242 ([12]; Table 9) [µg/mL] | MIC, CL4931 ([13]; Table 9) [µg/mL] | other results |
| --- | --- | --- | --- | --- | --- | --- | --- | --- | --- | --- | --- |
| CNC(CC(C)C)C(=O)NC1C(=O)NC(CC(N)=O)C(=O)NC2C(=O)NC3C(=O)NC(C(=O)NC(C(=O)O)c4cc(O)cc(O)c4-c4cc3ccc4O)C(O)c3ccc(c(Cl)c3)Oc3cc2cc(c3OC2OC(CN)C(O)C(O)C2OC2CC(C)(NCc3ccc(OCc4ccc(Cl)c(Cl)c4)cc3)C(O)C(C)O2)Oc2ccc(cc2Cl)C1O (stereo not drawn) [Compound 13, Glucos-6-amino-N-4-(3,4-dichlorobenzyloxy)benzyl-vancosamino-vancomycin] | – | – | – | – | – | – | – | – | – | – | MIC ([1]; E. faecium CL 5053 (VanA), BHI broth): 1 µg/mL and 2 µg/mL; MIC [2]: 0.125 µg/mL (≈ 0.073 µM); MIC [3]: 0.25 µg/mL (≈ 0.146 µM); bioavailability [4]: unexpectedly greater bioavailability; clearance rate [4]: faster clearance rate; tissue distribution [4]: more favorable tissue distribution; MIC [5]: 16 µg/mL and 8 µg/mL; MIC [6]: 0.06 µg/mL and 0.03 µg/mL; MIC [7]: 0.12 µg/mL and 0.06 µg/mL; MIC [8]: >64 µg/mL and 64 µg/mL; ED50/MIC ([9]; S. aureus 2985, ratio of s.c. ED50 to MIC): 3.12; ED0 (s.c.) [9, 14]: 0.195 mg/kg; ED50 (s.c.) [9, 14]: 0.390 mg/kg; ED100 (s.c.) [9, 14]: 0.780 mg/kg |
| CNC(CC(C)C)C(=O)NC1C(=O)NC(CC(N)=O)C(=O)NC2C(=O)NC3C(=O)NC(C(=O)NC(C(=O)O)c4cc(O)cc(O)c4-c4cc3ccc4O)C(O)c3ccc(c(Cl)c3)Oc3cc2cc(c3OC2OC(CN)C(O)C(O)C2OC2CC(C)(NCc3ccc(C(=O)Oc4ccc(Cl)c(Cl)c4)cc3)C(O)C(C)O2)Oc2ccc(cc2Cl)C1O (stereo not drawn) [Compound 188] | 16 | 16 | 11 | 4 | 8 | – | – | – | – | – | – |
| CNC(CC(C)C)C(=O)NC1C(=O)NC(CC(N)=O)C(=O)NC2C(=O)NC3C(=O)NC(C(=O)NC(C(=O)O)c4cc(O)cc(O)c4-c4cc3ccc4O)C(O)c3ccc(c(Cl)c3)Oc3cc2cc(c3OC2OC(CN)C(O)C(O)C2OC2CC(C)(NCC(=O)Oc3ccc(-c4ccc(Cl)c(Cl)c4)cc3)C(O)C(C)O2)Oc2ccc(cc2Cl)C1O (stereo not drawn) [Compound 189] | >32 | 32 | 32 | 32 | 32 | – | – | – | – | – | – |
| CNC(CC(C)C)C(=O)NC1C(=O)NC(CC(N)=O)C(=O)NC2C(=O)NC3C(=O)NC(C(=O)NC(C(=O)O)c4cc(O)cc(O)c4-c4cc3ccc4O)C(O)c3ccc(c(Cl)c3)Oc3cc2cc(c3OC2OC(CNCc3ccccc3)C(O)C(O)C2OC2CC(C)(NCc3ccc(-c4ccc(Cl)cc4)cc3)C(O)C(C)O2)Oc2ccc(cc2Cl)C1O (stereo not drawn) [Compound 190] | – | – | – | – | – | 8 (≈ 4.6 µM) | 4 (≈ 2.3 µM) | 5.5 | 2 (≈ 1.15 µM) | 8 (≈ 4.6 µM) | – |
| C=Cc1ccccn1 [Compound 191, 2-pyridylethylene] | – | – | – | – | – | 16 (≈ 152 µM) | 16 (≈ 152 µM) | 13.0 | 4 (≈ 38 µM) | 16 (≈ 152 µM) | – |
| CNC(CC(C)C)C(=O)NC1C(=O)NC(CC(N)=O)C(=O)NC2C(=O)NC3C(=O)NC(C(=O)NC(C(=O)O)c4cc(O)cc(O)c4-c4cc3ccc4O)C(O)c3ccc(c(Cl)c3)Oc3cc2cc(c3OC2OC(CNCC3CCCO3)C(O)C(O)C2OC2CC(C)(NCc3ccc(-c4ccc(Cl)cc4)cc3)C(O)C(C)O2)Oc2ccc(cc2Cl)C1O (stereo not drawn) [Compound 192] | – | – | – | – | – | 16 (≈ 9.23 µM) | 16 (≈ 9.23 µM) | 13.0 | 4 (≈ 2.31 µM) | 16 (≈ 9.23 µM) | – |
| teicoplanin [reference compound] | >1024 | 0.5 | 170.8 | 256 | 256 | > 1020 | 0.5 | 128.1 | 256 | 256 | MIC, CL5053 ([1]; Table 10, E. faecium CL 5053 (VanA)): > 1020 µg/mL; MIC, CL4877 ([10]; Table 10): 16 µg/mL; Mean ([11]; Table 10, mean MIC over CL4931, CL5053, CL5242, CL4877): 256.0; MIC, CL5242 ([12]; Table 10): 256 µg/mL; MIC, CL4931 ([13]; Table 10): 256 µg/mL |
